# Test results from patent US20240409585A1, “MACROCYCLIC IMMUNOMODULATORS” (priority 2021, published 2024).
# Numbered stars: 1 amine (or outer) side, 2 acyl side, 3 side chain; on linkers, the order of the positions; unused ones are H or OH. Bridge positions count the residues as written; N and C are the ends. Square brackets hold non-standard residues; d marks the D form. Peptide text beside a SMILES is read from it. * marks the point of attachment. X31 = N=C(N)Nc1ccc(-c2ccc(C[C@H](N[*:1])C(=O)[*:2])cc2)cc1; Phe(3-CF3) = N[C@@H](Cc1cccc(C(F)(F)F)c1)C(=O)O; Ala(morpholin-4-yl) = N[C@@H](CN1CCOCC1)C(=O)O; Phe(4-COOH) = N[C@@H](Cc1ccc(C(=O)O)cc1)C(=O)O; Bip = N[C@@H](Cc1ccc(-c2ccccc2)cc1)C(=O)O; Abu(3R-NH2) = C[C@@H](N)[C@H](N)C(=O)O; Abu(3S-NH2) = C[C@H](N)[C@H](N)C(=O)O; Propanoyl(3,3,3-F3) = O=C(CC(F)(F)F)*; Glutaryl = O=C(CCCC(=O)[*:2])[*:1]; hPhe = N[C@@H](CCc1ccccc1)C(=O)O; Cha = N[C@@H](CC1CCCCC1)C(=O)O; aThr = C[C@H](O)[C@H](N)C(=O)O; dDab = NCC[C@@H](N)C(=O)O; Carboxymethyl = O=C(O)C*; NMeA = CN[C@@H](C)C(=O)O; Orn = NCCC[C@H](N)C(=O)O; Dab = NCC[C@H](N)C(=O)O; Dap = NC[C@H](N)C(=O)O; X9 = O=C(CCF)*
# Molecular target: T1, Alexa fluor-647 labeled human PD-L1-Ig binding to Jurkat cell line over-expressing human PD-1 (Homo sapiens, UniProt Q15116)
# T1 construct: expressed in transfected cells; host or cells: Jurkat
# Experiment: Jurkat-PD-1 Cell Binding High-Content Screening Assay (CBA): Method 3 (Alexa fluor-647 labeled PD-L1-Ig)
# Settings: Jurkat-PD-1 cells, Alexa fluor-647 labeled PD-L1-Ig 177 nM; head μM; read-out: CBA Method 3 μM
# Procedure, shortened: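 Jurkat cells over-expressing human PD-1 in RPMI/10% FCS were preincubated 2 h at 37 °C with compound, then exposed 1 h to Alexa fluor-647 labeled human PD-L1-Ig (177 nM final). Cells fixed in 4% paraformaldehyde with Hoechst 33342 and binding quantified by high-content imaging.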
# T1 sequence (Q15116 25-288): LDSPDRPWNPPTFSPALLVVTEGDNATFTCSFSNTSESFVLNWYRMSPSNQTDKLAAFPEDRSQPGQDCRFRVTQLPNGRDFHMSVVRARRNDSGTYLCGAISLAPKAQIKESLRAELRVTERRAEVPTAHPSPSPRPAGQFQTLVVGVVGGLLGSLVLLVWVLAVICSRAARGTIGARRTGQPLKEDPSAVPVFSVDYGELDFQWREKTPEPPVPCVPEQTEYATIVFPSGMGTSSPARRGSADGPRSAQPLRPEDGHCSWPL
row,Structure (SMILES),IC50
1,CC(C)C[C@H]1NC(=O)[C@H](C)N(C)C(=O)[C@H](Cc2ccc(-c3ccc(NC(=N)N)cc3)cc2)NC(=O)[C@H](Cc2ccc(-c3ccccc3)cc2)NC(=O)[C@H](Cc2ccc(OCC(=O)O)cc2)NC(=O)[C@H](Cc2cccc(C(F)(F)F)c2)NC(=O)[C@H](CC(=O)O)NC(=O)[C@H](Cc2ccc(C(=O)O)cc2)NC(=O)[C@H]([C@H](C)N)NC(=O)CSC[C@@H](C(=O)N[C@H](CCN)C(N)=O)NC(=O)[C@H](CO)NC(=O)[C@H]([C@H](C)O)NC(=O)[C@H](CC2CCCCC2)NC(=O)[C@H](CCN)NC1=O [Example 5231] ({CH2CO}-[Abu(3S-NH2)][Phe(4-COOH)]D[Phe(3-CF3)]Y(Carboxymethyl)[Bip][X31][NMeA][dL][Dab][Cha][aThr]SC[dDab]-NH2; thioether N-14),0.14 µM
2,CC(C)C[C@H]1NC(=O)[C@H](C)N(C)C(=O)[C@H](CCC(N)=O)NC(=O)[C@H](Cc2ccc(-c3ccccc3)cc2)NC(=O)[C@H](Cc2ccc(OCC(=O)O)cc2)NC(=O)[C@H](Cc2cccc(C(F)(F)F)c2)NC(=O)[C@H](CC(=O)O)NC(=O)[C@H](Cc2ccc(O)cc2)NC(=O)[C@H](CC2CCCCC2)NC(=O)CSC[C@@H](C(=O)N[C@@H](CCN)C(N)=O)NC(=O)[C@H](CCCN)NC(=O)[C@H](C(C)C)NC(=O)[C@H](CC2CCCCC2)NC(=O)[C@H](CCN)NC1=O [Example 5238] ({CH2CO}-[Cha]YD[Phe(3-CF3)]Y(Carboxymethyl)[Bip]Q[NMeA][dL][Dab][Cha]V[Orn]C[Dab]-NH2; thioether N-14),0.01 µM
3,CC(C)C[C@H]1NC(=O)[C@H](C)N(C)C(=O)[C@H](CCC(N)=O)NC(=O)[C@H](Cc2ccc(-c3ccccc3)cc2)NC(=O)[C@H](CCc2ccccc2)NC(=O)[C@H](Cc2cccc(C(F)(F)F)c2)NC(=O)[C@H](CC(=O)O)NC(=O)[C@H](CCC(N)=O)NC(=O)[C@H](CC2CCCCC2)NC(=O)CSC[C@@H](C(=O)N[C@@H](CCN)C(N)=O)NC(=O)[C@H](CCCN)NC(=O)[C@H](C(C)C)NC(=O)[C@H](CC2CCCCC2)NC(=O)[C@H](CCN)NC1=O [Example 5246] ({CH2CO}-[Cha]QD[Phe(3-CF3)][hPhe][Bip]Q[NMeA][dL][Dab][Cha]V[Orn]C[Dab]-NH2; thioether N-14),0.42 µM

# Other lines, results leading:
row,IC50,Structure (SMILES)
1,0.03 µM,CC(C)C[C@H]1NC(=O)[C@H](C)N(C)C(=O)[C@H](Cc2ccc(C(=O)O)cc2)NC(=O)[C@H](Cc2ccc(-c3ccccc3)cc2)NC(=O)[C@H](Cc2ccc(C(=O)O)cc2)NC(=O)[C@H](Cc2cccc(C(F)(F)F)c2)NC(=O)[C@H](CC(=O)O)NC(=O)[C@H](Cc2ccc(C(=O)O)cc2)NC(=O)[C@H](CN2CCOCC2)NC(=O)CSC[C@@H](C(=O)N[C@@H](CCN)C(N)=O)NC(=O)[C@H](CNC(=O)CCF)NC(=O)[C@H](C(C)C)NC(=O)[C@H](CC2CCCCC2)NC(=O)[C@H](CCN)NC1=O [Example 5230] ({CH2CO}-[Ala(morpholin-4-yl)][Phe(4-COOH)]D[Phe(3-CF3)][Phe(4-COOH)][Bip][Phe(4-COOH)][NMeA][dL][Dab][Cha]V[Dap](X9)C[Dab]-NH2; thioether N-14)
2,0.1 µM,"CC(C)C[C@H]1NC(=O)[C@H](C)N(C)C(=O)[C@H](Cc2ccc(C(=O)O)cc2)NC(=O)[C@H](Cc2ccc(-c3ccccc3)cc2)NC(=O)[C@H](CCc2ccccc2)NC(=O)[C@H](Cc2cccc(C(F)(F)F)c2)NC(=O)[C@H](CC(=O)O)NC(=O)[C@H](Cc2ccc(C(=O)O)cc2)NC(=O)[C@H](CN2CCOCC2)NC(=O)CSC[C@@H](C(=O)N[C@@H](CCN)C(N)=O)NC(=O)[C@H](CNC(=O)CC(F)(F)F)NC(=O)[C@H](C(C)C)NC(=O)[C@H](CC2CCCCC2)NC(=O)[C@H](CCN)NC1=O [Example 5232] ({CH2CO}-[Ala(morpholin-4-yl)][Phe(4-COOH)]D[Phe(3-CF3)][hPhe][Bip][Phe(4-COOH)][NMeA][dL][Dab][Cha]V[Dap](Propanoyl(3,3,3-F3))C[Dab]-NH2; thioether N-14)"
3,0.02 µM,CC(C)C[C@H]1NC(=O)[C@H](C)N(C)C(=O)[C@H](Cc2ccc(C(=O)O)cc2)NC(=O)[C@H](Cc2ccc(-c3ccccc3)cc2)NC(=O)[C@H](Cc2ccc(C(=O)O)cc2)NC(=O)[C@H](Cc2cccc(C(F)(F)F)c2)NC(=O)[C@H](CC(=O)O)NC(=O)[C@H](Cc2ccc(C(=O)O)cc2)NC(=O)[C@H](CN2CCOCC2)NC(=O)CSC[C@@H](C(=O)N[C@@H](CCN)C(N)=O)NC(=O)[C@H](CNC(=O)CCF)NC(=O)[C@H](C(C)C)NC(=O)[C@H](CC2CCCCC2)NC(=O)[C@H](CCN)NC1=O [Example 5233] ({CH2CO}-[Ala(morpholin-4-yl)][Phe(4-COOH)]D[Phe(3-CF3)][Phe(4-COOH)][Bip][Phe(4-COOH)][NMeA][dL][Dab][Cha]V[Dap](X9)C[Dab]-NH2; thioether N-14)

# Same assay, conditions: Jurkat-PD-1 cells, Alexa fluor-647 labeled PD-L1-Ig 177 nM; nM; read-out: CBA Method 3
row,Structure (SMILES),IC50
1,CC(C)C[C@H]1NC(=O)[C@H](C)N(C)C(=O)[C@H](CCC(N)=O)NC(=O)[C@H](Cc2ccc(-c3ccccc3)cc2)NC(=O)[C@H](CCc2ccccc2)NC(=O)[C@H](Cc2cccc(C(F)(F)F)c2)NC(=O)[C@H](CC(=O)O)NC(=O)[C@H](Cc2ccc(O)cc2)NC(=O)[C@H](CC2CCCCC2)NC(=O)CSC[C@@H](C(=O)N[C@@H](CCN)C(N)=O)NC(=O)[C@H](CCC(N)=O)NC(=O)[C@H](C(C)C)NC(=O)[C@H](CC2CCCCC2)NC(=O)[C@H](CCN)NC1=O [Example 5241] ({CH2CO}-[Cha]YD[Phe(3-CF3)][hPhe][Bip]Q[NMeA][dL][Dab][Cha]VQC[Dab]-NH2; thioether N-14),0.0004 µM
2,CC(C)C[C@H]1NC(=O)[C@H](C)N(C)C(=O)[C@H](CCC(N)=O)NC(=O)[C@H](Cc2ccc(-c3ccccc3)cc2)NC(=O)[C@H](CCc2ccccc2)NC(=O)[C@H](Cc2cccc(C(F)(F)F)c2)NC(=O)[C@H](CC(=O)O)NC(=O)[C@H](Cc2ccc(O)cc2)NC(=O)[C@H]([C@@H](C)N)NC(=O)CSC[C@@H](C(=O)N[C@@H](CCN)C(N)=O)NC(=O)[C@H](CCC(N)=O)NC(=O)[C@H](C(C)C)NC(=O)[C@H](CC2CCCCC2)NC(=O)[C@H](CCN)NC1=O [Example 5242] ({CH2CO}-[Abu(3R-NH2)]YD[Phe(3-CF3)][hPhe][Bip]Q[NMeA][dL][Dab][Cha]VQC[Dab]-NH2; thioether N-14),0.0021 µM
3,CC(C)C[C@H]1NC(=O)[C@H](C)N(C)C(=O)[C@H](CCC(N)=O)NC(=O)[C@H](Cc2ccc(-c3ccccc3)cc2)NC(=O)[C@H](CCc2ccccc2)NC(=O)[C@H](Cc2cccc(C(F)(F)F)c2)NC(=O)[C@H](CC(=O)O)NC(=O)[C@H](CCC(N)=O)NC(=O)[C@H]([C@@H](C)N)NC(=O)CSC[C@@H](C(=O)N[C@@H](CCN)C(N)=O)NC(=O)[C@H](CCCN)NC(=O)[C@H](C(C)C)NC(=O)[C@H](CC2CCCCC2)NC(=O)[C@H](CCN)NC1=O [Example 5247] ({CH2CO}-[Abu(3R-NH2)]QD[Phe(3-CF3)][hPhe][Bip]Q[NMeA][dL][Dab][Cha]V[Orn]C[Dab]-NH2; thioether N-14),0.0017 µM
4,CC(C)C[C@H]1NC(=O)[C@H](C)N(C)C(=O)[C@H](CCC(N)=O)NC(=O)[C@H](Cc2ccc(-c3ccccc3)cc2)NC(=O)[C@H](Cc2ccc(OCC(=O)O)cc2)NC(=O)[C@H](Cc2cccc(C(F)(F)F)c2)NC(=O)[C@H](CC(=O)O)NC(=O)[C@H](CCC(N)=O)NC(=O)[C@H](CC2CCCCC2)NC(=O)CSC[C@@H](C(=O)N[C@@H](CCN)C(N)=O)NC(=O)[C@H](CCCN)NC(=O)[C@H](C(C)C)NC(=O)[C@H](CC2CCCCC2)NC(=O)[C@H](CCN)NC1=O [Example 5248] ({CH2CO}-[Cha]QD[Phe(3-CF3)]Y(Carboxymethyl)[Bip]Q[NMeA][dL][Dab][Cha]V[Orn]C[Dab]-NH2; thioether N-14),0.0006 µM
5,CC(C)C[C@H]1NC(=O)[C@H](C)N(C)C(=O)[C@H](CCC(N)=O)NC(=O)[C@H](Cc2ccc(-c3ccccc3)cc2)NC(=O)[C@H](Cc2ccc(OCC(=O)O)cc2)NC(=O)[C@H](Cc2cccc(C(F)(F)F)c2)NC(=O)[C@H](CC(=O)O)NC(=O)[C@H](CCC(N)=O)NC(=O)[C@H]([C@@H](C)N)NC(=O)CSC[C@@H](C(=O)N[C@@H](CCN)C(N)=O)NC(=O)[C@H](CCCN)NC(=O)[C@H](C(C)C)NC(=O)[C@H](CC2CCCCC2)NC(=O)[C@H](CCN)NC1=O [Example 5249] ({CH2CO}-[Abu(3R-NH2)]QD[Phe(3-CF3)]Y(Carboxymethyl)[Bip]Q[NMeA][dL][Dab][Cha]V[Orn]C[Dab]-NH2; thioether N-14),0.0019 µM

# The next lines start with the values.
row,IC50,Structure (SMILES)
1,0.0034 µM,CC(C)C[C@H]1NC(=O)[C@H](C)N(C)C(=O)[C@H](Cc2ccc(C(=O)O)cc2)NC(=O)[C@H](Cc2ccc(-c3ccccc3)cc2)NC(=O)[C@H](Cc2ccc(C(=O)O)cc2)NC(=O)[C@H](Cc2cccc(C(F)(F)F)c2)NC(=O)[C@H](CC(=O)O)NC(=O)[C@H](Cc2ccc(C(=O)O)cc2)NC(=O)[C@H](CN2CCOCC2)NC(=O)CSC[C@@H](C(=O)N[C@@H](CCN)C(N)=O)NC(=O)[C@H](CNC(=O)CCCC(=O)O)NC(=O)[C@H](C(C)C)NC(=O)[C@H](CC2CCCCC2)NC(=O)[C@H](CCN)NC1=O [Example 5234] ({CH2CO}-[Ala(morpholin-4-yl)][Phe(4-COOH)]D[Phe(3-CF3)][Phe(4-COOH)][Bip][Phe(4-COOH)][NMeA][dL][Dab][Cha]V[Dap](Glutaryl)C[Dab]-NH2; thioether N-14)
2,0.0044 µM,CC(C)C[C@H]1NC(=O)[C@H](C)N(C)C(=O)[C@H](CCC(N)=O)NC(=O)[C@H](Cc2ccc(-c3ccccc3)cc2)NC(=O)[C@H](CCc2ccccc2)NC(=O)[C@H](Cc2cccc(C(F)(F)F)c2)NC(=O)[C@H](CC(=O)O)NC(=O)[C@H](Cc2ccc(O)cc2)NC(=O)[C@H](CN2CCOCC2)NC(=O)CSC[C@@H](C(=O)N[C@@H](CCN)C(N)=O)NC(=O)[C@H](CCC(N)=O)NC(=O)[C@H](C(C)C)NC(=O)[C@H](CC2CCCCC2)NC(=O)[C@H](CCN)NC1=O [Example 5240] ({CH2CO}-[Ala(morpholin-4-yl)]YD[Phe(3-CF3)][hPhe][Bip]Q[NMeA][dL][Dab][Cha]VQC[Dab]-NH2; thioether N-14)
